Each structure is given as a SMILES string. Some results are limits rather than exact numbers.

Usually melting point stands for the temperature, or range, at which the solid turns liquid. The term Ki denotes a measure of affinity in units of concentration, obtained from inhibition or displacement.

One data set has as its target T1, rat mGlu2 receptor (Rattus norvegicus, UniProt P31421).
T1 construct: expressed in transfected cells; membranes prepared
The experiment in a line: [3H]-LY354740 binding on mGlu2 transfected CHO cell membranes. Conditions: inhibition of 10 nM [3H]-LY354740 binding, membranes of CHO cells transfected with rat mGlu2, room temperature, 1 hour. An excerpt:
[^3H]-LY354740 Binding on mGlu2 Transfected CHO Cell Membranes. Transfection and Cell Culture
cDNA encoding the rat mGlu2 receptor protein in pBluescript II was subcloned into the eukaryotic expression vector pcDNA I-amp from Invitrogen Ltd (Paisley, UK). This vector construct (pcD1mGR2) was co-transfected with a psvNeo plasmid encoding the gene for neomycin resistance, into CHO cells by a modified calcium phosphate method described by Chen & Okayama (1988). The cells were maintained in Dulbecco's Modified Eagle medium with reduced L-glutamine (1 mM final concentration), 36 mg/L L-Proline and 10% dialysed foetal calf serum from Gibco-Invitrogen; the medium was supplemented with 500 microM α-methyl-4-carboxyphenylglycine (MCPG). Selection was made in the presence of G-418 (300 ug/ml final concentration). Clones were identified by reverse transcription of 5 μg total RNA, followed by PCR using mGlu2 receptor specific primers 5′-[…]-3′ and 5′-[…]-3′ in 60 mM Tris HCl (pH 10), 15 mM (NH4)2SO4, 2 mM MgCl2, 25 units/ml Taq Polymerase with 30 cycles annealing at 60° C. for 1 min., extention at 72° C. for 30 s, and 1 min. 95° C. denaturation.
Cells, cultured as above, were harvested and washed three times with cold PBS and frozen at −80° C. The pellet was resuspended in cold 20 mM HEPES-NaOH buffer containing 10 mM EDTA (pH 7.4), and homogenised with a polytron (Kinematica, A G, Littau, Switzerland) for 10 s at 10 000 rpm. After centrifugation for 30 min. at 4° C., the pellet was washed once with cold 20 mM HEPES-NaOH buffer containing 0.1 mM EDTA, (pH 7.4). After a second centrifugation for 30 min. at 4° C. the pellet was resuspended in cold 20 mM HEPES-NaOH buffer containing 0.1 mM EDTA, (pH 7.4). Protein content was measured using the Micro BCA method from Pierce-Perbio (Rockford, Ill., USA) using bovine serum albumin as standard.
After thawing, the membranes were resuspended in cold 50 mM Tris-HCl buffer containing 2 mM MgCl2 (pH 7.4) (binding buffer). The final concentration of the membranes in the assays was 25 μg protein/ml. Inhibition experiments were performed with membranes incubated with 10 nM [^3H]-LY354740 at room temperature, for 1 hour, in presence of various concentrations of the compound to be tested. Following the incubations, membranes were filtered onto Whatmann GF/B glass fiber filters or onto GF/B Unifilter plates and washed 5 times with cold binding buffer. Non specific binding was measured in the presence of 10 μM (2S,2′R,3′R)-2-(2′3′-Dicarboxycyclopropyl)glycine (DCG IV from Tocris, Ellisville, Mo. USA). After transfer of the filters into plastic vials containing 10 ml of Ultima-gold scintillation fluid from Perkin-Elmer (Boston, Mass., USA), the radioactivity was measured by liquid scintillation in a Tri-Carb 2500 TR counter (Packard, Zürich, Switzerland). For 96-Unifilter plates the radioactivity was measured after addition of Microscint 40 scintillation fluid (Perkin Elmer, Boston Mass.) using a TopCount NXT (Packard)
The inhibition curves were fitted with a four parameter logistic equation giving IC50 values, and Hill coefficients.

T1 sequence (P31421 19-872): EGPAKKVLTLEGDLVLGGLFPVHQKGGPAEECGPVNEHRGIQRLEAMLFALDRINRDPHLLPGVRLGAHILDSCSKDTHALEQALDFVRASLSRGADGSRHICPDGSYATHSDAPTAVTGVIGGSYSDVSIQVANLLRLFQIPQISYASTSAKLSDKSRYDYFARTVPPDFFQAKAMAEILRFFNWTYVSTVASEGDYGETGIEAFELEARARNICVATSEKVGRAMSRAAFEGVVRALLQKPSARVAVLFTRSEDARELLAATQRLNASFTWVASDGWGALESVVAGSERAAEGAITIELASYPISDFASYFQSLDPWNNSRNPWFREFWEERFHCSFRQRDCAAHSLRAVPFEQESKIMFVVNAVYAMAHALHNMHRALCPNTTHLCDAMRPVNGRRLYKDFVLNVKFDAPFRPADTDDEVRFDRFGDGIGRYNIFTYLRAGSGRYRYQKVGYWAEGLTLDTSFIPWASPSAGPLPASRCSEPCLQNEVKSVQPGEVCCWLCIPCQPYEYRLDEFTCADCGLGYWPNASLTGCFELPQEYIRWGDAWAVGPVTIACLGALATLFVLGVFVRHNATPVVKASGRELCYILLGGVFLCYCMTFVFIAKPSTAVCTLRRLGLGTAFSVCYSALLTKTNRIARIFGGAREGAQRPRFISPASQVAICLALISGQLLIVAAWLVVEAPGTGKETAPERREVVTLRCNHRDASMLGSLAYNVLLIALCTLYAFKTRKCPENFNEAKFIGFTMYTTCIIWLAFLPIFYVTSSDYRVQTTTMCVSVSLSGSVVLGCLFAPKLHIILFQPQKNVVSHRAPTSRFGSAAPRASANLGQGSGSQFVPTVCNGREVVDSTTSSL

In turn, `Cc1cc(-c2ccc(C(F)(F)F)cc2)cc(-c2nc(-c3cccc(S(N)(=O)=O)c3)no2)n1` [Example 237, 3-{5-[6-Methyl-4-(4-trifluoromethyl-phenyl)-pyridin-2-yl]-[1,2,4]oxadiazol-3-yl}-benzenesulfonamide] returned a melting point of 277 °C. Moreover, the Ki at rat mGlu2 receptor was determined as 4 nM.
`Cc1cc(-c2ccc(C(F)(F)F)cc2)cc(-c2cccc(C#N)c2)n1` [Example 242, 3-[6-Methyl-4-(4-trifluoromethyl-phenyl)-pyridin-2-yl]-benzonitrile] had a melting point of 140 °C. Besides, the Ki on rat mGlu2 receptor turned out to be 42 nM.
On the same counts, the results for `NS(=O)(=O)c1cccc(-c2noc(-c3cc(C(F)(F)F)cc(-c4ccc(C(F)(F)F)cc4)n3)n2)c1` [Example 243, 3-{5-[4-Trifluoromethyl-6-(4-trifluoromethyl-phenyl)-pyridin-2-yl]-[1,2,4]oxadiazol-3-yl}-benzenesulfonamide] are 211 °C and 3 nM.
For the compound `NS(=O)(=O)c1cccc(-c2cccc(-c3cc(-c4ccc(C(F)(F)F)cc4)cc(C(F)(F)F)n3)c2)c1` [Example 244, 3′-[6-Trifluoromethyl-4-(4-trifluoromethyl-phenyl)-pyridin-2-yl]-biphenyl-3-sulfonic acid amide], the melting point was determined as 187 °C. Moreover, the Ki on rat mGlu2 receptor was 5 nM.
Turning to `Cc1cc(-c2ccc(Cl)c(Cl)c2)cc(-n2ccnc2)n1` [Example 247, 4-(3,4-Dichloro-phenyl)-2-imidazol-1-yl-6-methyl-pyridine], the melting point is 227 °C. The compound also displayed a Ki on rat mGlu2 receptor of 41 nM.
Consider `Cc1cc(-c2ccc(Cl)c(Cl)c2)cc(-c2cccc(-c3ccc(N)nc3)c2)n1` [Example 249, 5-{3-[4-(3,4-Dichloro-phenyl)-6-methyl-pyridin-2-yl]-phenyl}-pyridin-2-ylamine], for which the melting point was 99 °C (dec.). Besides, the affinity at rat mGlu2 receptor, expressed as Ki, was 9 nM.
`Cc1cc(-c2ccc(C(F)(F)F)cc2)cc(-c2cccc(-c3cc(S(N)(=O)=O)c(F)cc3F)c2)n1` [Example 270, 4,6-Difluoro-3′-[6-methyl-4-(4-trifluoromethyl-phenyl)-pyridin-2-yl]-biphenyl-3-sulfonic acid amide]: the melting point was determined as 227 °C. The compound further showed an inhibition constant (Ki) at rat mGlu2 receptor of 6 nM.
With `Cc1cc(-c2ccc(C(F)(F)F)cc2)cc(-c2cccc(-c3ccc(S(N)(=O)=O)s3)c2)n1` [Example 271, 5-{3-[6-Methyl-4-(4-trifluoromethyl-phenyl)-pyridin-2-yl]-phenyl}-thiophene-2-sulfonic acid amide], the melting point was 215 °C. Also, affinity on rat mGlu2 receptor was put at a Ki of 3 nM.
In the case of `Cc1cc(-c2ccc(C(F)(F)F)cc2)nc(-c2cccc(-c3ccc(S(=O)(=O)NC(C)(C)C)s3)c2)c1` [Example 272, 5-{3-[4-Methyl-6-(4-trifluoromethyl-phenyl)-pyridin-2-yl]-phenyl}-thiophene-2-sulfonic acid tert-butylamide], the melting point was found to be 156 °C. Moreover, on rat mGlu2 receptor, the affinity corresponds to a Ki of 80 nM.
For `Cc1cc(-c2ccc(C(F)(F)F)cc2)nc(-c2cccc(-c3cccc(S(N)(=O)=O)c3)c2)c1` [Example 274, 3′-[4-Methyl-6-(4-trifluoromethyl-phenyl)-pyridin-2-yl]-biphenyl-3-sulfonic acid amide] the same measures were 200 °C and 4 nM.
As to `Cc1cc(-c2ccc(C(F)(F)F)cc2)nc(-c2cccc(-c3cncc(S(N)(=O)=O)c3)c2)c1` [Example 275, 5-{3-[4-Methyl-6-(4-trifluoromethyl-phenyl)-pyridin-2-yl]-phenyl}-pyridine-3-sulfonic acid amide], the melting point was 217 °C. The compound also gave a Ki on rat mGlu2 receptor of 87 nM.
In turn, `Cc1nc(-c2cn(-c3cc(C(F)(F)F)cc(-c4ccc(C(F)(F)F)cc4)n3)cn2)sc1S(=O)(=O)NC(C)(C)C` [Example 292, 4-Methyl-2-{1-[4-trifluoromethyl-6-(4-trifluoromethyl-phenyl)-pyridin-2-yl]-1H-imidazol-4-yl}-thiazole-5-sulfonic acid tert-butylamide] gave a melting point of more than 250 °C. In addition, the affinity at rat mGlu2 receptor corresponds to a Ki of 28 nM.
On the same counts, the results for `Cc1nc(-c2cn(-c3cc(C(F)(F)F)cc(-c4ccc(C(F)(F)F)cc4)n3)cn2)sc1S(N)(=O)=O` [Example 294, 4-Methyl-2-{1-[4-trifluoromethyl-6-(4-trifluoromethyl-phenyl)-pyridin-2-yl]-1H-imidazol-4-yl}-thiazole-5-sulfonic acid amide] are 187 °C (dec.) and 13 nM.
Turning to `Cc1cc(-c2ccc(C(F)(F)F)cc2)cc(-c2ccnc(-c3cccc([N+](=O)[O-])c3)c2)n1` [Example 306, 6-Methyl-2′-(3-nitro-phenyl)-4-(4-trifluoromethyl-phenyl)-[2,4′]bipyridinyl], the melting point was 164 °C. At rat mGlu2 receptor, the affinity corresponds to a Ki of 38 nM.
`NS(=O)(=O)c1cnc(-c2cn(-c3cc(-c4ccc(C(F)(F)F)cc4)cc(C(F)(F)F)n3)cn2)s1` [Example 313, 2-{1-[6-Trifluoromethyl-4-(4-trifluoromethyl-phenyl)-pyridin-2-yl]-1H-imidazol-4-yl}-thiazole-5-sulfonic acid amide] had a melting point of more than 250 °C. Also, the Ki at rat mGlu2 receptor is 18 nM.
For `Cc1cc(-c2ccc(C(F)(F)F)cc2)cc(-c2ccnc(-c3cccc(NS(C)(=O)=O)c3)c2)n1` [Example 318, N-{3-[6-Methyl-4-(4-trifluoromethyl-phenyl)-[2,4′]bipyridinyl-2′-yl]-phenyl}-methanesulfonamide], the melting point was 196 °C. On rat mGlu2 receptor, this compound registered a Ki of 4 nM.
For `Cc1cc(-c2ccc(C(F)(F)F)cc2)nc(-c2ccnc(-c3ccc(S(=O)(=O)NC(C)(C)C)s3)c2)c1` [Example 320, 5-[4-Methyl-6-(4-trifluoromethyl-phenyl)-[2,4′]bipyridinyl-2′-yl]-thiophene-2-sulfonic acid tert-butylamide], the melting point came to 209 °C. The Ki on rat mGlu2 receptor was 16 nM.
As for `Cc1cc(-c2ccc(C(F)(F)F)cc2)cc(-c2ccnc(-c3cccc(S(=O)(=O)N4CCOCC4)c3)c2)n1` [Example 346, 6-Methyl-2′-[3-(morpholine-4-sulfonyl)-phenyl]-4-(4-trifluoromethyl-phenyl)-[2,4′]bipyridinyl], the melting point came out at 115 °C. Besides, the Ki at rat mGlu2 receptor stood at 4 nM.
Regarding `Cc1cc(-c2ccc(C(F)(F)F)cc2)cc(-c2ccnc(-c3cccc(S(=O)(=O)N4CCN(C)CC4)c3)c2)n1` [Example 350, 6-Methyl-2′-[3-(4-methyl-piperazine-1-sulfonyl)-phenyl]-4-(4-trifluoromethyl-phenyl)-[2,4′]bipyridinyl], the melting point is 180 °C (dec.). This compound displayed a Ki at rat mGlu2 receptor of 22 nM.
For `Cc1cc(-c2ccc(C(F)(F)F)cc2)cc(-c2cccc(-c3cccc(S(C)(=O)=O)c3)c2)n1` [Example 353, 2-(3′-Methanesulfonyl-biphenyl-3-yl)-6-methyl-4-(4-trifluoromethyl-phenyl)-pyridine], the melting point was 110 °C (dec.). At rat mGlu2 receptor, affinity was put at a Ki of 3 nM.
Take `Cc1cc(-c2ccc(C(F)(F)F)cc2)cc(-c2ccnc(-c3cccc(S(C)(=O)=O)c3)n2)n1` [Example 355, 2-(3-Methanesulfonyl-phenyl)-4-[6-methyl-4-(4-trifluoromethyl-phenyl)-pyridin-2-yl]-pyrimidine]: the melting point is 208 °C. For the same compound, the Ki at rat mGlu2 receptor was found to be 1 nM.
The compound `Cc1cc(-c2ccc(C(F)(F)F)cc2)cc(-c2cccc(-c3cccc(S(C)(=O)=O)c3)n2)n1` [Example 356, 6′-(3-Methanesulfonyl-phenyl)-6-methyl-4-(4-trifluoromethyl-phenyl)-[2,2′]bipyridinyl] registered a melting point of 186 °C. The compound further displayed a Ki at rat mGlu2 receptor of 1 nM.

The values above are taken from patent US8183262B2, “Pyridine derivatives as mGluR2 antagonists” (Hoffmann-La Roche Inc., priority 2007, dated 2012).
